Test results published in ChEMBL document CHEMBL5465560, “Selectivity Literature for EUbOPEN Chemogenomic Library” (2024).

How the values were obtained:
[1] = biological target: T1, Serine/threonine-protein kinase TNNI3K (Homo sapiens) (UniProt Q59H18); experiment: Selectivity interaction (KinomeScan (DiscoverX)) EUB0000695a TNNI3K; settings: at 100 nM
T1 sequence (whole entry): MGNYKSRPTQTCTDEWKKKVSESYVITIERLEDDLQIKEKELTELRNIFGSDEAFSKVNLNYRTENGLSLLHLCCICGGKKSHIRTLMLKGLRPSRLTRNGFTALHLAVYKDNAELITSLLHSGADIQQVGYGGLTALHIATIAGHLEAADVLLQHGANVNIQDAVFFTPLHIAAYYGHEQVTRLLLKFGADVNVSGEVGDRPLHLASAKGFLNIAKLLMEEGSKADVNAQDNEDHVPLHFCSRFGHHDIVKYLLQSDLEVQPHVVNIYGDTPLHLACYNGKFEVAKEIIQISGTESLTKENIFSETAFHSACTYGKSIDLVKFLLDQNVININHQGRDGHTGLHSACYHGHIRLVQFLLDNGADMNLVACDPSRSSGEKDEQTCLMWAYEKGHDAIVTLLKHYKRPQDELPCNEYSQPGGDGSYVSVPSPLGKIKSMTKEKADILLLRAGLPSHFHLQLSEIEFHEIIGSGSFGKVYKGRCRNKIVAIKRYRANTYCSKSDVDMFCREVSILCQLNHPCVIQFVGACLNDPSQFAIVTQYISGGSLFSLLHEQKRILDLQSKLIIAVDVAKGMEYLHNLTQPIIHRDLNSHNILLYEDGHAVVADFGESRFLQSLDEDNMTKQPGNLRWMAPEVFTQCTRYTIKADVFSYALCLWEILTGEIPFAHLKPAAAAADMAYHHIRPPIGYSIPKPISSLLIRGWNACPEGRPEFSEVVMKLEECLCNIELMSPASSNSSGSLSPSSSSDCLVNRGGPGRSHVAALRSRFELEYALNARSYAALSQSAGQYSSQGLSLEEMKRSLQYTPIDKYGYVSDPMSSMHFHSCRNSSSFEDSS

[2] = biological target: Dual specificity testis-specific protein kinase 1 (Homo sapiens) (UniProt Q15569); settings: at 10 µM
Dual specificity testis-specific protein kinase 1 (Homo sapiens), sequence (Q15569 whole entry, looked up, canonical isoform): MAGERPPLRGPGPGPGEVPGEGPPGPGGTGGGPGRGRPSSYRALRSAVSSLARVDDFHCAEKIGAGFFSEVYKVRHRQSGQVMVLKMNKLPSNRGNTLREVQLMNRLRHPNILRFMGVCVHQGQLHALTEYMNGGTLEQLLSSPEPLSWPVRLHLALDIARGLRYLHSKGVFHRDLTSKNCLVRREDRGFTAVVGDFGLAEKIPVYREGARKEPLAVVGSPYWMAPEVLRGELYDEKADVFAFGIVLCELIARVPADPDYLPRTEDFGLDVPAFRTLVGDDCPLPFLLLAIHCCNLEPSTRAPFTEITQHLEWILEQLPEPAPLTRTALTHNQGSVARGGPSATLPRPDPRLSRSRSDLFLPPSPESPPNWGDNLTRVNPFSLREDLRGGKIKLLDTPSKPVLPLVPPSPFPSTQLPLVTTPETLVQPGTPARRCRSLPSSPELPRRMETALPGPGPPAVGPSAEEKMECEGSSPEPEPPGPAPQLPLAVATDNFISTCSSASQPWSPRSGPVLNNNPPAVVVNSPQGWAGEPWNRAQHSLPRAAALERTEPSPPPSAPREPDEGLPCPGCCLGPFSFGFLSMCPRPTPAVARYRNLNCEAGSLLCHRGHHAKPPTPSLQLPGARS

[3] = system: Phosphatidylinositol 4,5-bisphosphate 3-kinase catalytic subunit alpha isoform (Homo sapiens), P42336 [Q546K]; experiment: (§1) Selectivity interaction (KinomeScan (DiscoverX)) EUB0000092b PIK3CA; settings: at 10 µM
Phosphatidylinositol 4,5-bisphosphate 3-kinase catalytic subunit alpha isoform (Homo sapiens), P42336 [Q546K], sequence (P42336 whole entry Q546K, canonical isoform): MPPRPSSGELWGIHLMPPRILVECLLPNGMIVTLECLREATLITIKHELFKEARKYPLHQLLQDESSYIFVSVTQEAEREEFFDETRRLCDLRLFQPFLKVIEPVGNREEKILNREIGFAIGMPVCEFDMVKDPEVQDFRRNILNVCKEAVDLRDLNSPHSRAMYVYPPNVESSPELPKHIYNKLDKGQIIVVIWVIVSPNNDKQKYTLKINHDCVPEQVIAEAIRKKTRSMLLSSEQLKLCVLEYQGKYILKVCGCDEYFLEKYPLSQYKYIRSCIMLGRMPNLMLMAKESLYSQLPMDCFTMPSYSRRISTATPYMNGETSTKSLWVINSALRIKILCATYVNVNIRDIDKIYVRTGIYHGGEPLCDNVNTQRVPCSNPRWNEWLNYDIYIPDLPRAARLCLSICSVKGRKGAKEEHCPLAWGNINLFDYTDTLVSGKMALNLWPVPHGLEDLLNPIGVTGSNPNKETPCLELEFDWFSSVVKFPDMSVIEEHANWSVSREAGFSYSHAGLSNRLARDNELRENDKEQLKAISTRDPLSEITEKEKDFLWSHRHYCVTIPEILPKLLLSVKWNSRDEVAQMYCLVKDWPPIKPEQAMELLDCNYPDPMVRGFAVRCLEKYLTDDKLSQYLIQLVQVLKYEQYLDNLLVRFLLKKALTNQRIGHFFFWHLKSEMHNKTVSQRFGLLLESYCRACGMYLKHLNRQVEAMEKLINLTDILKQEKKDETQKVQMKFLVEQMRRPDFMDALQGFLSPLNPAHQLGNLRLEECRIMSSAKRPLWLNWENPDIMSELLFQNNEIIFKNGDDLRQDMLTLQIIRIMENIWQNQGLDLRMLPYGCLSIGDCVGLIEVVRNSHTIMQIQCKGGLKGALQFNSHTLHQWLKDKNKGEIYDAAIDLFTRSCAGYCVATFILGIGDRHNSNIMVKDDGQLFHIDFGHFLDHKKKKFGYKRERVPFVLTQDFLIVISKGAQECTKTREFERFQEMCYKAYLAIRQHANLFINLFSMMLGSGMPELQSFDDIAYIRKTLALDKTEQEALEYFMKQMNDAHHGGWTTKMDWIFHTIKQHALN

[4] = system: Phosphatidylinositol 4,5-bisphosphate 3-kinase catalytic subunit alpha isoform (Homo sapiens), P42336 [H1047L]; experiment: as §1; settings: at 10 µM
Phosphatidylinositol 4,5-bisphosphate 3-kinase catalytic subunit alpha isoform (Homo sapiens), P42336 [H1047L], sequence (P42336 whole entry H1047L, canonical isoform): as the sequence (P42336 whole entry Q546K, canonical isoform) above, with K546Q, H1047L counted along it

[5] = system: Phosphatidylinositol 4,5-bisphosphate 3-kinase catalytic subunit alpha isoform (Homo sapiens), P42336 [E542K]; experiment: as §1; settings: at 10 µM
Phosphatidylinositol 4,5-bisphosphate 3-kinase catalytic subunit alpha isoform (Homo sapiens), P42336 [E542K], sequence (P42336 whole entry E542K, canonical isoform): as the sequence (P42336 whole entry Q546K, canonical isoform) above, with E542K, K546Q counted along it

[6] = system: Phosphatidylinositol 4,5-bisphosphate 3-kinase catalytic subunit alpha isoform (Homo sapiens), P42336 [E545K]; experiment: as §1; settings: at 10 µM
Phosphatidylinositol 4,5-bisphosphate 3-kinase catalytic subunit alpha isoform (Homo sapiens), P42336 [E545K], sequence (P42336 whole entry E545K, canonical isoform): as the sequence (P42336 whole entry Q546K, canonical isoform) above, with E545K, K546Q counted along it

[7] = system: Phosphatidylinositol 4,5-bisphosphate 3-kinase catalytic subunit alpha isoform (Homo sapiens), P42336 [M1043I]; experiment: as §1; settings: at 10 µM
Phosphatidylinositol 4,5-bisphosphate 3-kinase catalytic subunit alpha isoform (Homo sapiens), P42336 [M1043I], sequence (P42336 whole entry M1043I, canonical isoform): as the sequence (P42336 whole entry Q546K, canonical isoform) above, with K546Q, M1043I counted along it

[8] = system: Phosphatidylinositol 4,5-bisphosphate 3-kinase catalytic subunit alpha isoform (Homo sapiens), P42336 [E545A]; experiment: as §1; settings: at 10 µM
Phosphatidylinositol 4,5-bisphosphate 3-kinase catalytic subunit alpha isoform (Homo sapiens), P42336 [E545A], sequence (P42336 whole entry E545A, canonical isoform): as the sequence (P42336 whole entry Q546K, canonical isoform) above, with E545A, K546Q counted along it

[9] = system: Phosphatidylinositol 4,5-bisphosphate 3-kinase catalytic subunit alpha isoform (Homo sapiens), P42336 [C420R]; experiment: as §1; settings: at 10 µM
Phosphatidylinositol 4,5-bisphosphate 3-kinase catalytic subunit alpha isoform (Homo sapiens), P42336 [C420R], sequence (P42336 whole entry C420R, canonical isoform): as the sequence (P42336 whole entry Q546K, canonical isoform) above, with C420R, K546Q counted along it

[10] = biological target: T2, Cyclin-G-associated kinase (Homo sapiens) (UniProt O14976); experiment: Selectivity interaction (KinomeScan (DiscoverX)) EUB0000045b GAK
T2 sequence (whole entry): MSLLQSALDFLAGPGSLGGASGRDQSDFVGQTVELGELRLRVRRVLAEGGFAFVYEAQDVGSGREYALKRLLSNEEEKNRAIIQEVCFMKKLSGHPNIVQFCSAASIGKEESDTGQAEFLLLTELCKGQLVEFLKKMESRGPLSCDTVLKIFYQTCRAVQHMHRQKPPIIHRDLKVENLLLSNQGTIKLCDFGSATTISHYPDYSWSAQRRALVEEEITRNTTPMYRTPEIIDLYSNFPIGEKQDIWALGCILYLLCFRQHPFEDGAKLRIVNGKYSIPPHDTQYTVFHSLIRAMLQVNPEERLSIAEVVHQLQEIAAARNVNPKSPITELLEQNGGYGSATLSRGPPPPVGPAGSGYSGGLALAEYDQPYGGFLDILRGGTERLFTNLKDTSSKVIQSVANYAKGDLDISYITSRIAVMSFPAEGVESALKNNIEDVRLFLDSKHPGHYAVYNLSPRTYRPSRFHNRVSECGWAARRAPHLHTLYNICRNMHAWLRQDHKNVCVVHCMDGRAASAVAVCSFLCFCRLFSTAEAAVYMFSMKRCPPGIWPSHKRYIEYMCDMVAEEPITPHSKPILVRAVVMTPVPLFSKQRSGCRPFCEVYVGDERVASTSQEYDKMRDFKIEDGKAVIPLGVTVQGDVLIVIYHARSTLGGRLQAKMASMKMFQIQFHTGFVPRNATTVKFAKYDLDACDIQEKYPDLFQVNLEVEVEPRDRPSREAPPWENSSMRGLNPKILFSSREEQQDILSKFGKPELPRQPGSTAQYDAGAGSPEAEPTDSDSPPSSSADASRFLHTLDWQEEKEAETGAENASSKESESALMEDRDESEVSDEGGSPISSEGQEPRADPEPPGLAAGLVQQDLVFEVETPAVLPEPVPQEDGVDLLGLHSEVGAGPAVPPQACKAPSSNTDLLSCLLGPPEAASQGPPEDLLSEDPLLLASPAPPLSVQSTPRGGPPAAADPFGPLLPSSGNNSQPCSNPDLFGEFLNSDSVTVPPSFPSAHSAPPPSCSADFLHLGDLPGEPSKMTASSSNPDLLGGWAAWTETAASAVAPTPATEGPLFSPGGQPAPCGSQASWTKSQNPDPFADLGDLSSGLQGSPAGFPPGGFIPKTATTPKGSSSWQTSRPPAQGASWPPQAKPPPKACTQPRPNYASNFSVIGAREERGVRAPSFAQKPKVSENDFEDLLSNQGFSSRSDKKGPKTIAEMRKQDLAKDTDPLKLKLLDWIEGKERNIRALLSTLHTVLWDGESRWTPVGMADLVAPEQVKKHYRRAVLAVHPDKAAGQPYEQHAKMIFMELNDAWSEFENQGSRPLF

[11] = biological target: Ribosomal protein S6 kinase beta-1 (Homo sapiens, UniProt P23443); experiment: Selectivity interaction (Kinase panel (KiNativ target engagement assay in Jurkat cells)) EUB0001635a RPS6KB1; assay type: cell-based; settings: at 1 µM
Ribosomal protein S6 kinase beta-1, sequence (P23443 whole entry, looked up): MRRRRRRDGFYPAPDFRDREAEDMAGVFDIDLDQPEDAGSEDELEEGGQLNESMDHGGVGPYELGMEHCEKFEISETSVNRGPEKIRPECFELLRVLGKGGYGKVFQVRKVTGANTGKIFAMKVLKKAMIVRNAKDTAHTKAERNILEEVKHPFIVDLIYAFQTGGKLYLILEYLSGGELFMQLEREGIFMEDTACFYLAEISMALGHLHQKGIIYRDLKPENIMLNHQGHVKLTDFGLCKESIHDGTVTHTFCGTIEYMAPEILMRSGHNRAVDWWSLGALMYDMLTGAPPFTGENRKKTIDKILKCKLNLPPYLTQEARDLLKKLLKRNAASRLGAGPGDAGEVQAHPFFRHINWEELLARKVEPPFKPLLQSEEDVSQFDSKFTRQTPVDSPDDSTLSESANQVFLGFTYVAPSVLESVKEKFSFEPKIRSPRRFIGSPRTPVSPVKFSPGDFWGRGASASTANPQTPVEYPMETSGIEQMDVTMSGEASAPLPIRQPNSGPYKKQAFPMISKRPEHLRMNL

Cc1cc(F)c(C(=O)Nc2cccc(-c3nncn3C(C)C)n2)cc1-n1cnc(C2CC2)c1 gave a % of control [1] of 100%.

In the case of CCN(CC)CCCCNc1ncc2cc(-c3cc(OC)cc(OC)c3)c(NC(=O)NC(C)(C)C)nc2n1, the % of control [2] is reported as 100%.

For CCC(=O)N1CCN(c2ccc(-n3c(=O)ccc4cnc5ccc(-c6cnc7ccccc7c6)cc5c43)cc2C(F)(F)F)CC1, the % of control [3] was 6.8%, the % of control [4] was 2.6% and the % of control [5] was 1%. For the same molecule, the % of control [6] was 0.6%, the % of control [7] was 8.6% and the % of control [8] was 1%. The % of control [9] was 0.7%.

Molecule C=CC(=O)Nc1cc(-n2c(=O)ccc3cnc4ccc(-c5ccc(NS(C)(=O)=O)cc5)cc4c32)ccc1C has a % of control ([10]; at 1 µM) of 74% and a % of control ([10]; at 10 µM) of 23%.

C=CC(=O)Nc1ccc(C(=O)Nc2[nH]nc3c2CN(C(=O)N[C@H](CN(C)C)c2ccccc2)C3(C)C)cc1 gave a % of engagement ([11]; Selectivity number of off-targets 0.0, Selectivity number of targets 233.0, Source Knowledge https://www.sciencedirect.com/science/article/pii/S2451945619300674?via%3Dihub) of 7.5% and a % of engagement [11] of -9.4%.
